From patent publication US7485710B2, “Nucleic acids coding for adhesion factor of group B streptococcus, adhesion factors of group B streptococcus and further uses thereof” (priority 2002, dated 2009)

Tests used:
[1] = tested on: A549 cells; assay: Interaction of protein-coated latex beads with A549 cells (scanning electron microscopy); format: cell-based, human
Protocol: BSA-coated latex beads were used as a control.
Latex beads were either coated with BSA (A) or FbsA fusion protein (B-D) and the interaction of the coated beads with the lung epithelial cell line A549 was analyzed by scanning electron microscopy.
Approximately […] latex beads (3 μm diameter, Sigma) were washed tree times in PBS and then coated with 300 μg of fusion protein or BSA in 500 μl PBS overnight at 4° C. Coated beads were washed once in PBS and then blocked with 200 μl of 10 mg/ml BSA in PBS for 1 h at room temperature. Beads were washed twice in PBS and once in RPMI+10% FCS and then resupended in 1 ml of RPMI+10% FCS. 300 μl of beads were added to approximately 4×10^5 A549 cells in 24-well plates. The cells were incubated for 1 h at 37° C. (5% CO2), washed five times with PBS and fixed in a solution containing 3% glutaraldehyde and 5% formaldehyde in cacodylate bluffer for 45 min on ice. The samples were washed with cacodylate buffer, dehydrated in a graded series of acetone and subjected to critical point drying with CO2. Samples were then coated with a 10 nm thick gold film and examined by scanning electron microscopy as described previously (Reinscheid et al., 2001a).
Approximately 1×10^9 latex beads (3 μm diameter, Sigma) were washed three times in 25 mM 2-N-morpholinoethanesulfonic acid (MES), pH 6.8. One half was resuspended in 1.0 ml MES buffer containing 500 μg/ml FbsA fusion protein and the remaining half was resuspended in 1.0 ml MES buffer. The beads were incubated overnight at 4° C. with end-over-end rotation. After pelleting of the beads by centrifugation, the amount of remaining protein in the supernatant was determined with a Bradford protein assay kit (BioRad). The beads were washed once with MES buffer and blocked for 1 h with 10 mg/ml BSA in MES buffer at room temperature. The beads were washed twice with MES buffer, once with RPMI+10% FCS, and resuspended in RPMI+10% FCS. Confluent A549 cells in 24-well plates were inoculated with 2×10^8 beads per well in a total volume of 1.0 ml. The bead monolayer mixtures were incubated for 2 h at 37° C. in a 5% CO2 atmosphere. Cells were washed five times with PBS and fixed with 3% paraformaldehyde and 4% glutaraldehyde in […] cacodylate buffer for scanning electron microscopy. Scanning electron microscopy was performed with a Zeiss DSM 962 microscope.

[2] = Subcutaneous immunization of mice and probing of fusion proteins with mice sera; format: in vivo; settings: boost after three weeks, serum after six weeks, 1:1000 dilution
Excerpt: Serial dilutions of the fusion proteins PabA, PabB, and PabD were spotted onto nitrocellulose and probed with a 1:1000 dilution of the mice sera against the respective proteins. Bound antibodies were labelled with an anti-mouse-HRP conjugate and visualized by chemiluminescence.
To test, if the proteins PabA, PabB and PabD elicit an immune response in mice, purified PabA, PabB and PabD fusion protein was used for the subcutaneous immunization of mice. The mice were boosted after three weeks and serum was collected six weeks after the first immunization. Serial dilutions of the PabA, PabB, and PabD fusion proteins were blotted onto nitrocellulose and probed with the mice sera against the different proteins.

[3] = tested on: A549 cells; assay: Epithelial cell adherence and internalization assay of GBS 6313 in presence of proteins; format: cell-based, human; settings: for adherence of GBS 6313 to A549 cells in the presence of fusion protein / invasion of A549 cells by GBS 6313 in the presence of fusion protein: 100 μg/ml fusion protein (FIG. 19)
Protocol: The adherence of GBS 6313 to A549 cells (A) and its internalization into these cells (B) was arbitrarily set to 100% and the results obtained in the presence of the different fusion proteins was related to these values. Each experiment was performed at least three times in triplicate.
Adherence of GBS to epithelial cells and internalization into epithelial cells was assayed essentially as described previously (Caparon et al., 1991; Rubens et al. 1992). Briefly, A549 cells were transferred to 24-well tissue culture plates at approximately 4×10^5 cells per well and cultivated overnight in RPMI (Gibco BRL) tissue culture medium, supplemented with 10% of fetal calf serum. After replacement of the medium with 1 ml of fresh medium, the cells were infected with 5×10^6 streptococci per well and incubated at 37° C. for 2 h. The non-adherent bacteria were removed by washing three times with PBS. In adherence assays, the epithelial cells were subsequently detached from the well by the addition of trypsin/EDTA and lysed by adding 300 μl of distilled water. Adherent bacteria were quantitated by plating serial dilutions of the lysate onto THY agar plates. For internalization assays the epithelial cells were incubated after 2 h of infection for another 2 h in tissue culture medium supplemented with penicilling G (10 U) and streptomycin (0.01 mg) to kill extracellular bacteria. After three washes with PBS, the epithelial cells were detached by the addition of trypsin/EDTA and lysed in 300 μl of distilled water. The amount of intracellular bacteria was quantified by plating serial dilutions of the lysate onto THY agar plates. Each experiment was repeated at least three times in triplicate. […]
Adherence of S. agalactiae to A549 and HEL299 cells and internalization into these cells was assayed essentially as described in Example 1 for A549 cells. In some experiments, A549 cells were preincubated with different amounts of FbsA protein or FbsA-derived peptides in RPMI medium for 30 min with three subsequent washes with PBS.

[4] = tested on: GBS strain 6313; assay: Binding of radiolabelled human proteins to GBS; design: species or system Streptococcus agalactiae; settings: untreated bacteria
Protocol: Purified human fibrinogen was radiolabelled with ^125I, using the chloramin T method (Hunter and Greenwood, 1962). Binding of labelled fibrinogen to GBS was performed essentially as described by Chhatwal et al. (Chhatwal, Muller, and Blobel, 1983). Briefly, overnight cultures of GBS were pelleted by centrifugation, washed twice with phosphate-buffered saline supplemented with 0.02% Tween 20 (PBST) and adjusted photometrically to a transmission of 10% at 600 nm. A total of 0.2 ml of the bacterial suspension was added to 20 μl of ^125I-labelled fibrinogen containing 23 ng of fibrinogen. After incubation for 1 h at room temperature, the streptococci were sedimented by centrifugation and washed with 1 ml of PBST. The radioactivity of the pellet was finally measured in a gamma counter (Packard Instruments). The amount of bacterial-bound fibrinogen was calculated as the percentage of total radiolabelled fibrinogen added to the bacteria. In inhibition experiments, the binding of 23 ng of radiolabelled fibrinogen to 0.2 ml of GBS (T=10%) was determined in the presence of various amounts of FbsA fusion proteins, Bsp fusion protein or synthetic peptides. Each experiment was repeated at least three times in triplicate.
GBS strain 6313, belonging to serotype III, was tested in binding experiments for its interaction with radiolabelled human vitronectin, laminin, fibronectin, fibrinogen, and IgG. […]

[5] = 1 μg/ml of externally added fibrinogen
[6] = fibrinogen 0.1 μg/ml to 1.0 μg/ml, fibronectin 10 μg/ml, data not shown

Row | Molecule | binding of protein-coated latex beads to A549 cells [1] | immune response in mice (detection of fusion protein by mice sera) [2] | adherence of GBS 6313 to A549 cells in the presence of fusion protein [3] | invasion of A549 cells by GBS 6313 in the presence of fusion protein [3] | radiolabelled protein accumulated on the surface of GBS 6313 (of total) [4] | reduction of the adherence of GBS 6313 to A549 cells [3, 5] | reduction of the invasion of A549 cells by GBS 6313 [3, 5] | bacterial adherence to A549 cells after pre-incubation of S. agalactiae 6313 with protein [3, 6] | bacterial invasion of A549 cells after pre-incubation of S. agalactiae 6313 with protein [3, 6]
1 | PabA | significant binding | high immunogenicity | significantly reduced | significantly reduced | – | – | – | – | –
2 | fibrinogen: purified human fibrinogen (Sigma), 330 kDa plasma glycoprotein [reference compound] | – | – | – | – | about 50% | 90% | 90% | dose-dependent inhibition | dose-dependent inhibition
3 | PabD: C-terminally his-tagged fusion protein of GBS 6313 PabD (gbs0851) devoid of signal peptide (protein, left off: small tags and cut ends, C-terminally his-tagged fusion protein of GBS 6313 PabD (gbs0851) devoid of signal peptide) DDNFEMPTRYVKMSEKSKAFYQRLQEKQRKAHTTVKTFNNSEIRHQLPLKQEKARNDIYNLGILISQESKGFIQRIDNAYSLENVSDIVNEAQALYKRNYDLFEKIKSTRDKVQVLLASHQDNTDLKNFYAELDDMYEHVYLNESRVEAINRNIQKYN | significant binding | high immunogenicity | significantly reduced | significantly reduced | – | – | – | – | –
